Source: patent US20070167377A1, “Inhibitors of glycinamide ribonucleotide transformylase” (priority 2002, published 2007)
pIC50, pKi: −log10 of the molar value. “Also recorded” adds a separate entry of the source.

How the values were obtained:
Chemical stability = type: physicochemical
[1] = tested on: CCRF-CEM/FPGS^− cell line; test: Cytotoxic assay, FPGS deficient mutant; type: cell-based, human; conditions: lacks folylpolyglutamate synthase
Experimental: (§1) The cytotoxic activity of the compounds was measured using CCRF-CEM human leukemia cells, as described previously (Boger, D. L., et al., Bioorg. Med. Chem. 1997, 5, 1847-1852). Two mutant cell lines, CCRF-CEM/MTX and CCRF-CEM/FPGS^− were used to determine the dependence on the reduced folate active transport system and folylpolyglutamate synthetase (FPGS), respectively (Jansen, G., et al., Cancer Res. 1989, 49, 2455-2459).

DHFR = DHFR (Escherichia coli, UniProt P0ABQ4); test: DHFR inhibition (101, 102); type: biochemical
[2] = target: thymidylate synthetase (TS) (Homo sapiens, UniProt P04818); test: Thymidylate synthetase inhibition; type: biochemical
CCRF-CEM cell line = test: CCRF-CEM cytotoxic assay; type: cell-based, human; conditions: Homo sapiens
Experimental: as §1

E. coli GAR Tfase = E. coli GAR Tfase (Escherichia coli, UniProt P08179); test: E. coli GAR Tfase inhibition; type: biochemical; conditions: E. coli GAR Tfase
Experimental: (§2) GAR and AICAR Tfase inhibition studies were conducted as previously detailed^28 with the exception that the AICAR Tfase inhibition was conducted in the absence of 5 mM β-mercaptoethanol and screened with 10 nM enzyme, […] inhibitor and […] of cofactor. The DHFR inhibition study was conducted as previously detailed with 10 nM enzyme, […] H2F, […] NADPH and […] inhibitor.
The Ki values for the folate analogues were measured as previously described (Boger, D. L., et al., Bioorg. Med. Chem. 1997, 5, 1817-1830). Briefly, each compound was dissolved in dimethyl sulfoxide (DMSO) and then diluted in assay buffer. […] Thus, all assays were conducted by mixing 10 μM 10-formyl-5,8-dideazafolate (fDDF), 20 μM inhibitor in total volume of 1 mL buffer (0.1 M HEPES, pH 7.5) at 26° C., and the reaction initiated by the addition of 76 nM E. coli or human GAR Tfase. The assay monitors the deformylation of fDDF (Δε=18.9 mM^−1 cm^−1 at 295 nm) resulting from the transfer of the formyl group to β-GAR.

human AICAR Tfase = human AICAR Tfase (Homo sapiens, UniProt P31939); test: AICAR Tfase inhibition; type: biochemical
Experimental: as §2

CCRF-CEM/MTX cell line = test: Cytotoxic assay, reduced folate carrier deficient mutant; type: cell-based, human; conditions: impaired reduced folate carrier
Experimental: as §1

Solubility = type: physicochemical; conditions: pH 7-8

With Nc1nc(N)c(CCCC(C(=O)C(F)(F)F)c2ccc(C(=O)N[C@@H](CCC(=O)O)C(=O)O)cc2)c(=O)[nH]1 (stereo partly drawn) [Compound 101, N-{4-[4-(2,4-Diamino-6-oxo-1,6-dihydropyrimidin-5-yl)-1-(2,2,2-trifluoroacetyl)butyl]benzoyl}-L-glutamic acid] the “chemical stability (in words)” value (Chemical stability) was “chemically stable”, the “stability at pH 7-8” value (Chemical stability; pH 7-8 buffers in the presence of air, 7 days) was “excellent; also recorded: no decomposition or reaction” and the “cytotoxic activity (in words)” value [1] was “lacked or lost activity”. The “inhibition of DHFR (in words)” value (DHFR) was “inactive”, the pKi (DHFR; DHFR) was < 4.00 and the “inhibition of TS (in words)” value [2] was “inactive”. The pKi ([2]; TS) was < 4.00, the pIC50 (CCRF-CEM cell line; in the presence of media purines) was < 4.00 and the pIC50 (CCRF-CEM cell line; purines (hypoxanthine) absent in the media) was 7.80. The pKi (E. coli GAR Tfase) was 5.72, the “inhibition of AICAR Tfase (in words)” value (human AICAR Tfase) was “inactivity; also recorded: inactive” and the pKi (human AICAR Tfase; AICAR Tfase) was < 4.00. For the same compound, the “cytotoxic activity (in words)” value (CCRF-CEM/MTX cell line) was “lost activity” and the solubility (Solubility) was “excellent”.
